Laboratory results from US9469615B2, “Quinoxalines and AZA-quinoxalines as CRTH2 receptor modulators” (Merck Sharp & Dohme Corp., priority 2010, dated 2016).

What follows are molecules tested against T1, hCRTH2 (Homo sapiens, UniProt Q9Y5Y4) (assay: Radioligand binding assay ([3H]PGD2 competition, HEK-hCRTH2 membranes)). Conditions: [3H]PGD2 binding, rated A-E (Table A).
T1 construct: expressed in transfected cells; host or cells: HEK (human embryonic kidney) cells expressing hCRTH2; membrane preparation
T1 sequence (Q9Y5Y4 1-395): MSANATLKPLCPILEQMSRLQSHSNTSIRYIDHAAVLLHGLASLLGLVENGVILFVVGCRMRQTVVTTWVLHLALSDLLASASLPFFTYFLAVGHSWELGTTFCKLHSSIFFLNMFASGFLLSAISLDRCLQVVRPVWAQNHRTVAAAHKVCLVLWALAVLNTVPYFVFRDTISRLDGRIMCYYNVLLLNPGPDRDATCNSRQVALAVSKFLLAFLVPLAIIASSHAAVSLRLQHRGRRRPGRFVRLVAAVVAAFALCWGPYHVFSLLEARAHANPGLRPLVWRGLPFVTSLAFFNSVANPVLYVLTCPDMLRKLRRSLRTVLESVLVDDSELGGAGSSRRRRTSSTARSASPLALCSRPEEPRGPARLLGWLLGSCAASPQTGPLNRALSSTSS
Method in brief: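 Using membranes of an HEK line stably carrying hCRTH2, ligands were tested against [3H]PGD2 (3.0 nM) in pH 7.4 Tris buffer containing 2 mM MnCl2 and 1 mM EDTA. After one hour at room temperature, filters were washed cold and counted.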

**Q.** How did the Ki turn out when O=C(O)CCCCc1nc2cc(C(=O)N3CCC(c4ccccc4)C3)ccc2nc1-c1cccc(F)c1 (stereo not drawn) [26E, 3-(3-fluorophenyl)-7-[(3-phenyl-1-pyrrolidinyl)carbonyl]-2-quinoxalinepentanoic acid] was run?
**A.** The Ki was 2.1 to 20 nM.

**Q.** Which Ki does the source give for O=C(O)CCCCc1nc2cc(C(=O)N3CCC(c4ccccc4)C3)ccc2nc1-c1cccc(Cl)c1 (stereo not drawn) [26F, 3-(3-chlorophenyl)-7-[(3-phenyl-1-pyrrolidinyl)carbonyl]-2-quinoxalinepentanoic acid] here?
**A.** The Ki was 2.1 to 20 nM.

**Q.** With O=C(O)CCCCc1nc2cc(C(=O)N3CCC(c4ccccc4)C3)ccc2nc1-c1cc(Cl)cc(Cl)c1 (stereo not drawn) [26G, 3-(3,5-dichlorophenyl)-7-[(3-phenyl-1-pyrrolidinyl)carbonyl]-2-quinoxalinepentanoic acid] as the molecule, how does the Ki read?
**A.** Its Ki is 2.1 to 20 nM.

**Q.** Which Ki does the source give for O=C(O)CCCCc1nc2cc(C(=O)N3CCC(c4ccccc4)C3)ccc2nc1-c1ccc(F)cc1F (stereo not drawn) [26H, 3-(2,4-difluorophenyl)-7-[(3-phenyl-1-pyrrolidinyl)carbonyl]-2-quinoxalinepentanoic acid] here?
**A.** The Ki was 2.1 to 20 nM.

**Q.** Which Ki does the source give for O=C(O)CCCCc1nc2cc(C(=O)N3CCC(c4ccccc4)CC3)ccc2nc1-c1cccc(Cl)c1 [26J, 3-(3-chlorophenyl)-7-[(4-phenyl-1-piperidinyl)carbonyl]-2-quinoxalinepentanoic acid] here?
**A.** Its Ki is 0.1 to 2 nM.

**Q.** O=C(O)CCCCc1nc2cc(C(=O)N3CCC(c4ccccc4)CC3)ccc2nc1-c1ccc(C(F)(F)F)nc1 [26K, 7-[(4-phenyl-1-piperidinyl)carbonyl]-3-[6-(trifluoromethyl)-3-pyridinyl]-2-quinoxalinepentanoic acid] was tested. Which Ki did it give?
**A.** The Ki was 2.1 to 20 nM.

**Q.** With O=C(O)CCCCc1nc2cc(C(=O)N3CCC(c4ccccc4)CC3)ccc2nc1-c1ccccc1Cl [26L, 3-(2-chlorophenyl)-7-[(4-phenyl-1-piperidinyl)carbonyl]-2-quinoxalinepentanoic acid] as the molecule, how does the Ki read?
**A.** The Ki was 2.1 to 20 nM.

**Q.** Which Ki does the source give for O=C(O)CCCCc1nc2cc(C(=O)N3CCC(c4ccccc4)CC3)ccc2nc1-c1cccnc1 [26M, 7-[(4-phenyl-1-piperidinyl)carbonyl]-3-(3-pyridinyl)-2-quinoxalinepentanoic acid] here?
**A.** Its Ki is 2.1 to 20 nM.

**Q.** O=C(O)CCCCc1nc2cc(C(=O)N3CCC(c4ccccc4)CC3)ccc2nc1-c1ccc(OC(F)(F)F)cc1 [26N, 7-[(4-phenyl-1-piperidinyl)carbonyl]-3-[4-(trifluoromethoxy)phenyl]-2-quinoxalinepentanoic acid] was tested. Which Ki did it give?
**A.** The Ki was 0.1 to 2 nM.

**Q.** How did the Ki turn out when N#Cc1ccc(-c2nc3ccc(C(=O)N4CCC(c5ccccc5)CC4)cc3nc2CCCCC(=O)O)cc1 [26P, 3-(4-cyanophenyl)-7-[(4-phenyl-1-piperidinyl)carbonyl]-2-quinoxalinepentanoic acid] was run?
**A.** Its Ki is 2.1 to 20 nM.

**Q.** O=C(O)CCCCc1nc2cc(C(=O)N3CCC(c4ccccc4)CC3)ccc2nc1-c1cncnc1 [26Q, 7-[(4-phenyl-1-piperidinyl)carbonyl]-3-(5-pyrimidinyl)-2-quinoxalinepentanoic acid] was tested. Which Ki did it give?
**A.** Its Ki is 20.1 to 200 nM.

**Q.** Which Ki does the source give for O=C(O)CCCCc1nc2cc(C(=O)N3CCC(c4ccccc4)CC3)ccc2nc1-c1cncc(Cl)c1 [26R, 3-(5-chloro-3-pyridinyl)-7-[(4-phenyl-1-piperidinyl)carbonyl]-2-quinoxalinepentanoic acid] here?
**A.** The Ki was 20.1 to 200 nM.

**Q.** With O=C(O)CCCCc1nc2cc(C(=O)N3CCC(c4ccccc4)CC3)ccc2nc1-c1ccsc1 [26S, 7-[(4-phenyl-1-piperidinyl)carbonyl]-3-(3-thienyl)-2-quinoxalinepentanoic acid] as the molecule, how does the Ki read?
**A.** Its Ki is 0.1 to 2 nM.

**Q.** For Cn1cc(-c2nc3ccc(C(=O)N4CCC(c5ccccc5)CC4)cc3nc2CCCCC(=O)O)cn1 [26T, 3-(1-methyl-1H-pyrazol-4-yl)-7-[(4-phenyl-1-piperidinyl)carbonyl]-2-quinoxalinepentanoic acid], which Ki is on record?
**A.** Its Ki is 2.1 to 20 nM.

**Q.** Which Ki does the source give for CC(=O)c1ccccc1-c1nc2ccc(C(=O)N3CCC(c4ccccc4)CC3)cc2nc1CCCCC(=O)O [26U, 3-(2-acetylphenyl)-7-[(4-phenyl-1-piperidinyl)carbonyl]-2-quinoxalinepentanoic acid] here?
**A.** Its Ki is 2.1 to 20 nM.

**Q.** With COc1cc(C(F)(F)F)ccc1-c1nc2ccc(C(=O)N3CCC(c4ccccc4)CC3)cc2nc1CCCCC(=O)O [26V, 3-[2-methoxy-4-(trifluoromethyl)phenyl]-7-[(4-phenyl-1-piperidinyl)carbonyl]-2-quinoxalinepentanoic acid] as the molecule, how does the Ki read?
**A.** Its Ki is 0.1 to 2 nM.

**Q.** For COc1ccc(-c2nc3ccc(C(=O)N4CCC(c5ccccc5)CC4)cc3nc2CCCCC(=O)O)c(Cl)c1 [26W, 3-(2-chloro-4-methoxyphenyl)-7-[(4-phenyl-1-piperidinyl)carbonyl]-2-quinoxalinepentanoic acid], which Ki is on record?
**A.** The Ki was 0.1 to 2 nM.

**Q.** With CS(=O)(=O)c1ccc(-c2nc3ccc(C(=O)N4CCC(c5ccccc5)CC4)cc3nc2CCCCC(=O)O)cc1 [26X] as the molecule, how does the Ki read?
**A.** The Ki was 20.1 to 200 nM.

**Q.** O=C(O)CCCCc1nc2cc(C(=O)N3CCC(c4ccccc4)CC3)ccc2nc1-c1ccc(Cl)cc1Cl [26Y, 3-(2,4-dichlorophenyl)-7-[(4-phenyl-1-piperidinyl)carbonyl]-2-quinoxalinepentanoic acid] was tested. Which Ki did it give?
**A.** Its Ki is 0.1 to 2 nM.

**Q.** With COc1ccc(-c2nc3ccc(C(=O)N4CCC(c5ccccc5)CC4)cc3nc2CCCCC(=O)O)c(OC)c1 [26Z, 3-(2,4-dimethoxyphenyl)-7-[(4-phenyl-1-piperidinyl)carbonyl]-2-quinoxalinepentanoic acid] as the molecule, how does the Ki read?
**A.** Its Ki is 0.1 to 2 nM.

**Q.** How did the Ki turn out when O=C(O)CCCCc1nc2cc(C(=O)N3CCC(c4ccccc4)C3)ccc2nc1-c1cc(F)cc(F)c1 (stereo not drawn) [26i, 3-(3,5-difluorophenyl)-7-[(3-phenyl-1-pyrrolidinyl)carbonyl]-2-quinoxalinepentanoic acid] was run?
**A.** Its Ki is 2.1 to 20 nM.

**Q.** For COc1ccc(-c2nc3ccc(C(=O)N4CCC(c5ccccc5)CC4)cc3nc2CCCCC(=O)O)cc1 [26o, 3-(4-methoxyphenyl)-7-[(4-phenyl-1-piperidinyl)carbonyl]-2-quinoxalinepentanoic acid], which Ki is on record?
**A.** The Ki was 0.1 to 2 nM.

**Q.** C[C@@H](NC(=O)c1ccc2nc(-c3ccc(Cl)cc3)c(CC3CC(C(=O)O)C3)nc2c1)c1ccc(F)cc1 (stereo partly drawn) [30E] was tested. Which Ki did it give?
**A.** Its Ki is 2.1 to 20 nM.

**Q.** How did the Ki turn out when O=C(O)CCCCc1nc2cc(C(=O)N3CC(c4nc5ccccc5o4)C3)ccc2nc1-c1ccccc1 [31C] was run?
**A.** Its Ki is 2.1 to 20 nM.

**Q.** For C[C@@H](NC(=O)c1ccc2nc(-c3ccccc3)c(NCCCC(=O)O)nc2c1)c1ccc(F)cc1 [44D, (R)-4-((7-((1-(4-fluorophenyl)ethyl)carbamoyl)-3-phenylquinoxalin-2-yl)amino)butanoic acid], which Ki is on record?
**A.** The Ki was 2.1 to 20 nM.

**Q.** Which Ki does the source give for O=C(O)CCCNc1nc2cc(C(=O)N[C@@H]3CCCc4cc(F)ccc43)ccc2nc1-c1ccccc1 [44E, (R)-4-((7-((6-fluoro-1,2,3,4-tetrahydronaphthalen-1-yl)carbamoyl)-3-phenylquinoxalin-2-yl)amino)butanoic acid] here?
**A.** The Ki was 2.1 to 20 nM.

**Q.** O=C(O)CCCNc1nc2cc(C(=O)N3CCN(c4ccccc4)CC3)ccc2nc1-c1ccccc1 [44F, 4-((3-phenyl-7-(4-phenylpiperazine-1-carbonyl)quinoxalin-2-yl)amino)butanoic acid] was tested. Which Ki did it give?
**A.** Its Ki is 2.1 to 20 nM.

**Q.** With C[C@@H](NC(=O)c1ccc2nc(-c3ccccc3)c(NCCCC(=O)O)nc2c1)c1ccc(C#N)cc1 [44G] as the molecule, how does the Ki read?
**A.** The Ki was 20.1 to 200 nM.

**Q.** With O=C(O)CCCNc1nc2cc(C(=O)N3CCN(c4ccc(F)cc4)CC3)ccc2nc1-c1ccccc1 [44H, 4-((7-(4-(4-fluorophenyl)piperazine-1-carbonyl)-3-phenylquinoxalin-2-yl)amino)butanoic acid] as the molecule, how does the Ki read?
**A.** The Ki was 2.1 to 20 nM.

**Q.** With O=C(O)CCCNc1nc2cc(C(=O)N3CCC(c4ccc(F)cc4)CC3)ccc2nc1-c1ccccc1 [44J, 4-((7-(4-(4-fluorophenyl)piperidine-1-carbonyl)-3-phenylquinoxalin-2-yl)amino)butanoic acid] as the molecule, how does the Ki read?
**A.** Its Ki is 2.1 to 20 nM.

Same assay, conditions: [3H]PGD2 binding, values in text

**Q.** For O=C(O)CCCCc1nc2cc(C(=O)N3CCC(c4ccccc4)CC3)ccc2nc1-c1cncnc1 [26Q, 7-[(4-phenyl-1-piperidinyl)carbonyl]-3-(5-pyrimidinyl)-2-quinoxalinepentanoic acid], which Ki is on record?
**A.** The Ki was 96.7 nM.

**Q.** For COc1ccc(-c2nc3ccc(C(=O)N4CCC(c5ccccc5)CC4)cc3nc2CCCCC(=O)O)cc1 [26o, 3-(4-methoxyphenyl)-7-[(4-phenyl-1-piperidinyl)carbonyl]-2-quinoxalinepentanoic acid], which Ki is on record?
**A.** The Ki was 1.4 nM.

**Q.** With O=C(O)CCCNc1nc2cc(C(=O)N3CCN(c4ccc(F)cc4)CC3)ccc2nc1-c1ccccc1 [44H, 4-((7-(4-(4-fluorophenyl)piperazine-1-carbonyl)-3-phenylquinoxalin-2-yl)amino)butanoic acid] as the molecule, how does the Ki read?
**A.** Its Ki is 3.1 nM.
